In ChEMBL document CHEMBL3400067, “Synthesis, antinociceptive and anti-inflammatory effects of porphyrins” (Bioorg Med Chem, 2015):
Calls of active or inactive are those of the source. The rule behind the calls is not given here.

Experiments:
[1] = Antiinflammatory activity against Wistar rat erythrocytes assessed as inhibition of heat-induced hemolysis after 15 mins by membrane stabilizing activity assay; format: functional, cell-based; conditions: erythrocyte
Mus musculus [2] = test: Antinociceptive activity against CD-1 mouse assessed as licking of hind paw or jumping at 100 mg/kg, po after 90 mins; format: functional; conditions: CD-1, 1.5 h
Mus musculus [3] = test: Antiinflammatory activity in CD-1 mouse ear edema model assessed as reduction in TPA-induced edema size at 2 mg/ear, topically administered 30 mins prior to TPA-challenge measured after 6 hrs relative to control; format: functional
Mus musculus [4] = test: Antiinflammatory activity in CD-1 mouse ear edema model assessed as reduction in TPA-induced edema size at 8 mg/kg, po administered 30 mins prior to TPA-challenge for every 48 hrs for 10 days relative to vehicle treated control; format: functional; conditions: CD-1, Ear
Mus musculus [5] = test: Antiinflammatory activity in po dosed CD-1 mouse ear edema model assessed as reduction in TPA-induced edema size administered 30 mins prior to TPA-challenge for every 48 hrs for 10 days relative to vehicle treated control; format: functional, organism-based
Mus musculus [6] = test: Anti-arthritic activity in CD-1 mouse assessed as inhibition of carrageenan-kaolin-induced arthritis at 1 mg/kg, po for 8 days relative to vehicle treated control; format: functional; conditions: CD-1, 192 h
Mus musculus [7] = test: Anti-arthritic activity against carrageenan-kaolin-induced arthritis CD-1 mouse model assessed as decrease in spleen index at 1 mg/kg, po for 8 days relative to vehicle treated control; format: functional; conditions: CD-1, Spleen, 192 h
Mus musculus [8] = test: Anti-arthritic activity against carrageenan-kaolin-induced arthritis CD-1 mouse model assessed as decrease in TNF-alpha level in serum at 1 mg/kg, po for 8 days relative to vehicle treated control; format: functional
Mus musculus [9] = test: Anti-arthritic activity against carrageenan-kaolin-induced arthritis CD-1 mouse model assessed as decrease in IL-1beta level in serum at 1 mg/kg, po for 8 days relative to vehicle treated control; format: functional
Mus musculus [10] = test: Anti-arthritic activity against carrageenan-kaolin-induced arthritis CD-1 mouse model assessed as decrease in IL-6 level in serum at 1 mg/kg, po for 8 days relative to vehicle treated control; format: functional
Mus musculus [11] = test: Antiinflammatory activity against carrageenan-kaolin-induced arthritis CD-1 mouse model assessed as decrease in PGE2 level in serum at 1 mg/kg, po for 8 days relative to vehicle treated control; format: functional; conditions: CD-1, Serum, 192 h
Mus musculus [12] = test: Antiinflammatory activity against carrageenan-kaolin-induced arthritis CD-1 mouse model assessed as decrease in NO level in serum at 1 mg/kg, po for 8 days relative to vehicle treated control; format: functional; conditions: CD-1, Serum, 192 h
Mus musculus [13] = test: Anti-arthritic activity in po dosed CD-1 mouse assessed as inhibition of carrageenan-kaolin-induced arthritis at treated for 8 days relative to vehicle treated control; format: functional, organism-based; conditions: TDE = time-dependent effect
Mus musculus [14] = test: Anti-arthritic activity in CD-1 mouse assessed as inhibition of carrageenan-kaolin-induced arthritis at 200 mg/kg, po for 8 days relative to vehicle treated control; format: functional; conditions: CD-1, 192 h
Mus musculus [15] = test: Anti-arthritic activity against carrageenan-kaolin-induced arthritis CD-1 mouse model assessed as decrease in spleen index at 200 mg/kg, po for 8 days relative to vehicle treated control; format: functional; conditions: CD-1, Spleen, 192 h
Mus musculus [16] = test: Antiinflammatory activity against carrageenan-kaolin-induced arthritis CD-1 mouse model assessed as decrease in PGE2 level in serum at 200 mg/kg, po for 8 days relative to vehicle treated control; format: functional; conditions: CD-1, Serum, 192 h
Mus musculus [17] = test: Antiinflammatory activity against carrageenan-kaolin-induced arthritis CD-1 mouse model assessed as decrease in NO level in serum at 200 mg/kg, po for 8 days relative to vehicle treated control; format: functional; conditions: CD-1, Serum, 192 h
Mus musculus [18] = test: Antinociceptive activity in CD-1 mouse assessed as licking time during phase 1 at 50 to 200 mg/kg, po administered 1 hr prior to formalin-challenge; format: functional, organism-based
Mus musculus [19] = test: Antiinflammatory activity in CD-1 mouse ear edema model assessed as reduction in TPA-induced edema size at 200 mg/kg, po administered 30 mins prior to TPA-challenge for every 48 hrs for 10 days relative to vehicle treated control; format: functional; conditions: CD-1, Ear
Mus musculus [20] = test: Anti-arthritic activity against carrageenan-kaolin-induced arthritis CD-1 mouse model assessed as decrease in TNF-alpha level in serum at 200 mg/kg, po for 8 days relative to vehicle treated control; format: functional
Mus musculus [21] = test: Anti-arthritic activity against carrageenan-kaolin-induced arthritis CD-1 mouse model assessed as decrease in IL-1beta level in serum at 200 mg/kg, po for 8 days relative to vehicle treated control; format: functional
Mus musculus [22] = test: Anti-arthritic activity against carrageenan-kaolin-induced arthritis CD-1 mouse model assessed as decrease in IL-6 level in serum at 200 mg/kg, po for 8 days relative to vehicle treated control; format: functional

Structure (SMILES)	EC50 [1] [µM]	inhibition in vivo at 100 mg/kg (Mus musculus [2]) [%]	inhibition (INH) (Mus musculus [3]) [%]	Activity (Mus musculus [13])	inhibition in vivo at 200 mg/kg (Mus musculus [14]) [%]	inhibition in vivo at 200 mg/kg (Mus musculus [15]) [%]	inhibition in vivo at 200 mg/kg (Mus musculus [16]) [%]	inhibition in vivo at 200 mg/kg (Mus musculus [17]) [%]	Activity (Mus musculus [18])	inhibition in vivo at 200 mg/kg (Mus musculus [19]) [%]	further results
COc1ccc2cc([C@H](C)C(=O)O)ccc2c1 [NAPROXEN]	756	36									
COc1ccc2c(c1)c(CC(=O)O)c(C)n2C(=O)c1ccc(Cl)cc1 [INDOMETHACIN]			76								inhibition in vivo at 8 mg/kg (Mus musculus [4]): 55%; inhibition (Mus musculus [5]): Dose-dependent effect
CN(Cc1cnc2nc(N)nc(N)c2n1)c1ccc(C(=O)N[C@@H](CCC(=O)O)C(=O)O)cc1 [METHOTREXATE]				tde							inhibition in vivo at 1 mg/kg (Mus musculus [6]): 49%; inhibition in vivo at 1 mg/kg (Mus musculus [7]): 38%; fold change (FC) (Mus musculus [8]): 2.1; fold change (FC) (Mus musculus [9]): 2; fold change (FC) (Mus musculus [10]): 2.8; inhibition in vivo at 1 mg/kg (Mus musculus [11]): 66%; inhibition in vivo at 1 mg/kg (Mus musculus [12]): 76%
Fc1ccc(-c2c3nc(c(-c4ccc(F)cc4)c4ccc([nH]4)c(-c4ccc(F)cc4)c4nc(c(-c5ccc(F)cc5)c5ccc2[nH]5)C=C4)C=C3)cc1	395	20	38	tde	30	20	41	44	Active	36	
Brc1ccc(-c2c3nc(c(-c4ccc(Br)cc4)c4ccc([nH]4)c(-c4ccc(Br)cc4)c4nc(c(-c5ccc(Br)cc5)c5ccc2[nH]5)C=C4)C=C3)cc1	342	32	67	tde	27	17	32	36	Active	23	fold change (FC) (Mus musculus [20]): 1.1; fold change (FC) (Mus musculus [21]): 1.6; fold change (FC) (Mus musculus [22]): 1.3
